Reference: PubChem BioAssay (NCI)
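Briefly, cells in 96-well plates were exposed to five compound concentrations for 48 h, and endpoints were estimated by linear interpolation. TGI is the concentration that stops growth completely.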

What was measured:
Test in all cases: NCI-60 cell line screen, 48 h
A549 NSCLC = system: A549 NSCLC
CAKI-1 renal = system: CAKI-1 renal
CCRF-CEM leukemia = system: CCRF-CEM leukemia
HL-60(TB) leukemia = system: HL-60(TB) leukemia
IGROV1 ovarian = system: IGROV1 ovarian
KM12 colon = system: KM12 colon
NCI-H23 lung = system: NCI-H23 lung
NCI-H522 lung = system: NCI-H522 lung
RXF 393 renal = system: RXF 393 renal
SF-268 CNS = system: SF-268 CNS
SF-539 CNS = system: SF-539 CNS
SK-MEL-2 melanoma = system: SK-MEL-2 melanoma
SK-MEL-28 melanoma = system: SK-MEL-28 melanoma
SK-MEL-5 melanoma = system: SK-MEL-5 melanoma
SK-OV-3 ovarian = system: SK-OV-3 ovarian
SN12C renal = system: SN12C renal
SNB-75 CNS = system: SNB-75 CNS
SW-620 colon = system: SW-620 colon
UACC-257 melanoma = system: UACC-257 melanoma
HCC-2998 colon = system: HCC-2998 colon

| SMILES | TGI (A549 NSCLC) | TGI (CAKI-1 renal) | TGI (CCRF-CEM leukemia) | TGI (HL-60(TB) leukemia) | TGI (IGROV1 ovarian) | TGI (KM12 colon) | TGI (NCI-H23 lung) | TGI (NCI-H522 lung) | TGI (RXF 393 renal) | TGI (SF-268 CNS) | TGI (SF-539 CNS) | TGI (SK-MEL-2 melanoma) | TGI (SK-MEL-28 melanoma) | TGI (SK-MEL-5 melanoma) | TGI (SK-OV-3 ovarian) | TGI (SN12C renal) | TGI (SNB-75 CNS) | TGI (SW-620 colon) | TGI (UACC-257 melanoma) | TGI (HCC-2998 colon) |
| --- | --- | --- | --- | --- | --- | --- | --- | --- | --- | --- | --- | --- | --- | --- | --- | --- | --- | --- | --- | --- |
| COc1nc(Cl)nc(N[C@H](C)c2c3ccccc3cc3ccccc23)n1 | 96.2 µM | 25.9 µM | 29.6 µM | 58.8 µM | 20.5 µM | 26.9 µM | 31.8 µM | 21.3 µM | 25.9 µM | 39.7 µM | 33.8 µM | 31.6 µM | 10.2 µM | 19.5 µM | 29.3 µM | 17.8 µM | 76.4 µM | 28.8 µM | 30.2 µM |  |
| COC1/C=C/C(C)C(O)CC(O)/C=C/C(C)C(C(C)C(OC)C(C)CCC(=O)C(C)C(C/C=C/N(C)C=O)OC)OC(=O)/C=C/C=C(\C)CC(OC)CC2=CC(=O)O[C@@H](C(C)C(OC)C1)[C@H]2O (some centres undefined) | 0.235 µM | 0.0192 µM | 2.98 µM | 0.252 µM | 0.0689 µM | 1.15 µM | 0.0437 µM | 0.093 µM | 0.0112 µM | 0.137 µM | 0.0172 µM |  | 0.155 µM | < 0.005 µM | 0.108 µM | 1.78 µM | 0.00586 µM | 0.267 µM | 0.169 µM |  |
| N#Cc1ccccc1NC(=O)C(=O)C(C(=O)c1ccccc1F)C1OC(=O)c2ccccc21 (centres undefined) | > 100 µM | > 100 µM | 37.9 µM | 54.6 µM | > 100 µM | > 100 µM | > 100 µM | 75.1 µM | 87.6 µM | > 100 µM | 82.9 µM | 68.8 µM | > 100 µM | > 100 µM | > 100 µM | > 100 µM | > 100 µM | > 100 µM | > 100 µM | 53.4 µM |
| C[C@H]1S[C@@H](c2ccc(Cl)cc2Cl)N(NC(=O)c2ccncc2)C1=O |  | > 100 µM | > 100 µM | > 100 µM | > 100 µM | > 100 µM | > 100 µM | > 100 µM | > 100 µM |  |  | > 100 µM | > 100 µM | > 100 µM | > 100 µM | > 100 µM | > 100 µM |  |  |  |
| C=CCC(O[Si](C)(C)C(C)(C)C)c1cc(O[Si](C)(C)C(C)(C)C)ccc1OC (centres undefined) | > 100 µM | > 100 µM | > 100 µM | > 100 µM | > 100 µM | > 100 µM | > 100 µM |  | > 100 µM | > 100 µM | > 100 µM | > 100 µM | > 100 µM | > 100 µM | > 96.4 µM | > 100 µM | > 100 µM | > 100 µM | > 100 µM | > 100 µM |
| CCOc1ccc2nc(NC(=O)C(=O)C(C(=O)c3ccccc3F)C3OC(=O)c4ccccc43)sc2c1 (centres undefined) | 76.4 µM | 75.3 µM | 40.1 µM | 50.1 µM | 83.2 µM | 19 µM |  | 27.8 µM | 38.3 µM | 82 µM | 52.4 µM | 39.1 µM | 46.5 µM | 33.8 µM | 55.1 µM | 54.1 µM | 46.4 µM | 37.5 µM | > 100 µM | 29.7 µM |
| COc1ccccc1NC(=O)C(=O)C(C(=O)c1ccccc1F)C1OC(=O)c2ccccc21 (centres undefined) | > 100 µM | 86.7 µM | 67 µM | 56.5 µM | > 100 µM | 64 µM | 57.6 µM | 35.7 µM | 68.4 µM | > 100 µM | 66.1 µM | > 100 µM | > 100 µM | > 100 µM | 99.7 µM | 87.2 µM | 62.8 µM | > 100 µM | > 100 µM | 28.8 µM |
